Here are results for 1 molecule from publication doi:10.1101/2025.07.01.662609v1, “BtuJ1, a novel surface-exposed B12-binding protein in Bacteroidetes, functions as an extracellular vitamin reservoir that enhances fitness” (biorxiv, 2025).

This assay has as its target T1, BtuJ1 (BT1491) (Bacteroides thetaiotaomicron, UniProt Q8A7N3).
T1 construct: gene BT_1491; mature part without lipid anchor residue (signal peptide cleaved between 21 and 22); His-tagged, pET28 NcoI/XhoI, E. coli BL21(DE3); modelled from Met29
T1 sequence (Q8A7N3 23-256): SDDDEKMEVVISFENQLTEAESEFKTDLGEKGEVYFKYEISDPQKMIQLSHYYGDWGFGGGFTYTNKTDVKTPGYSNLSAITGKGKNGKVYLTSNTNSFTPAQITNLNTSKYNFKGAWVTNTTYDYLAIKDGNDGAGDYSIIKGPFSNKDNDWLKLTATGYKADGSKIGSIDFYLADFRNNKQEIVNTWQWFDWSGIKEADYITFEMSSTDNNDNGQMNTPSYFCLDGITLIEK
Nature of the assay: binding shown in supplementary figure, method not stated in main text. To be noted: AdoCbl added at 1:2 protein:corrinoid, then SEC in 10 mM Hepes, 100 mM NaCl, pH 7.5.

For the molecule `C/C1=C2/[N-][C@H]([C@H](CC(N)=O)[C@@]2(C)CCC(=O)NC[C@@H](C)OP(=O)([O-])O[C@H]2C(O)[C@@H](n3cnc4cc(C)c(C)cc43)O[C@@H]2CO)[C@]2(C)N=C(/C(C)=C3N=C(/C=C4N=C1[C@@H](CCC(N)=O)C\4(C)C)[C@@H](CCC(N)=O)[C@]\3(C)CC(N)=O)[C@@H](CCC(N)=O)[C@]2(C)CC(N)=O.[CH2-][C@H]1O[C@@H](n2cnc3c(N)ncnc32)[C@H](O)[C@@H]1O.[Co+3]` (stereo partly shown) [AdoCbl, adenosylcobalamin], the “binding shown in supplementary figure, method not stated in main text” value was “BtuJ1 also binds adenosylcobalamin, which has a bulkier upper ligand compared to other cobalamins”.
